Laboratory results as given in PMC9405216, “Antimicrobial and Cytotoxic Cyathane-Xylosides from Cultures of the Basidiomycete Dentipellis fragilis” (Antibiotics, 2022).
In brackets after ≈: the same amount, converted by molar mass. Where two headings read alike, the source gives them in different places. Marks after values point to notes of the source that are not given here.

Key:
Format in all cases: cell-based
[1] = system: Chromobacterium violaceum (DSM 30191); assay: Serial dilution MIC assay, Chromobacterium violaceum; conditions: overnight incubation, n.i. = no inhibition
Protocol: (§1) Serial dilution assays in 96-well microtiter plates were performed according to our standard protocol in order to determine the minimum inhibitory concentrations (MICs) of pure isolated compounds against different microorganisms. Essentially, aliquots of compounds 1–5 and 9 (20 µL), each with an initial concentration of 1 mg/mL, were diluted in MeOH together with the respective microorganisms to concentrations ranging between 67 µg/mL and 0.5 µg/mL in the 96-well plates, followed by overnight incubation. The MIC was then determined as the lowest concentration at which no growth of the test organism was observed. A broad spectrum of clinically approved test pathogens and sensitivity indicator strains were used in the assays (Table 4 and Table 5). Ciprofloxacin, oxytetracycline, kanamycin, and gentamycin were used as positive controls against bacterial pathogens, while nystatin was used as the positive control against fungi.

[2] = system: Mycolicibacterium smegmatis (ATCC 700084); assay: Serial dilution MIC assay, Mycolicibacterium smegmatis; conditions: serial dilution 67-0.5 µg/mL, overnight incubation, n.i. = no inhibition
Protocol: as §1

[3] = system: KB3.1 (ACC158) human endocervical adenocarcinoma; assay: MTT cytotoxicity test, KB3.1; conditions: KB3.1 human endocervical adenocarcinoma, five days incubation, n.c. = no cytotoxicity
Text: (§2) A panel of mammalian cell lines was used to determine the cytotoxicity of the compounds following a previously published protocol. The assay was initially performed using the sensitive cell lines KB3.1 (human endocervical adenocarcinoma) and L929 (mouse fibroblasts). Active compounds were further tested using the cell lines MCF-7 (human breast adenocarcinoma), PC-3 (human prostate adenocarcinoma), SKOV-3 (ovarian carcinoma), A549 (human lung carcinoma), and A431 (human squamous cell carcinomas) (Table 6). The cell lines A549, KB 3.1, and L929 were cultured in DMEM (Gibco, provided by Thermo Fisher Scientific), PC-3 in F12-K (Gibco) and MC-7, and SKOV-3 and A431 in RPMI (Gibco). With the exception of A549, all cell lines were supplemented with 10% bovine serum (Gibco). All cell lines were cultured at 37 °C. The L929 and KB 3.1 cell lines were cultivated under an atmosphere of 10% (v/v) carbon dioxide. Cytotoxicity tests were then carried out using MTT (3-(4,5-dimethylthiazol-2-yl)-2,5-diphenyltetrazolium bromide) in 96-well microtiter plates. Serial dilutions of the compounds (60 µL aliquots, each with an initial concentration of 1 mg/mL) were added into 120 µL aliquots of cell suspension (50000 cells/mL) in the 96-well plates. These were incubated for five days, after which an MTT assay was performed. The absorbance was taken at 590 nm using an Elisa plate reader (Victor, Überlingen, Germany). The half-maximal inhibitory concentration (IC50), the concentration at which cell growth inhibition was 50% of the control, was calculated as described elsewhere.

[4] = system: Actinobacter baumannii (DSM 30008); assay: Serial dilution MIC assay, Actinobacter baumannii; conditions: serial dilution 67-0.5 µg/mL, overnight incubation, n.i. = no inhibition
Protocol: as §1

[5] = system: Staphylococcus aureus (DSM 346); assay: Serial dilution MIC assay, Staphylococcus aureus; conditions: overnight incubation, n.i. = no inhibition
Protocol: as §1

[6] = system: L929 (ACC2) mouse fibroblasts; assay: MTT cytotoxicity test, L929; conditions: five days incubation, n.c. = no cytotoxicity
Text: as §2

[7] = system: Pseudomonas aeruginosa (DSM PA14); assay: Serial dilution MIC assay, Pseudomonas aeruginosa; conditions: serial dilution 67-0.5 µg/mL, overnight incubation, n.i. = no inhibition
Protocol: as §1

[8] = system: Bacillus subtilis (DSM 10); assay: Serial dilution MIC assay, Bacillus subtilis; conditions: overnight incubation, n.i. = no inhibition
Protocol: as §1

[9] = system: Schizosaccharomyces pombe (DSM 70572); assay: Serial dilution MIC assay, Schizosaccharomyces pombe; conditions: serial dilution 67-0.5 µg/mL, overnight incubation, n.i. = no inhibition
Protocol: as §1

[10] = system: Mucor hiemalis (DSM 2656); assay: Serial dilution MIC assay, Mucor hiemalis; conditions: overnight incubation, n.i. = no inhibition
Protocol: as §1

[11] = system: Escherichia coli (DSM 1116); assay: Serial dilution MIC assay, Escherichia coli; conditions: overnight incubation, n.i. = no inhibition
Protocol: as §1

[12] = system: Rhodotorula glutinis (DSM 10134); assay: Serial dilution MIC assay, Rhodotorula glutinis; conditions: overnight incubation, n.i. = no inhibition
Protocol: as §1

[13] = system: Pichia anomala (DSM 6766); assay: Serial dilution MIC assay, Pichia anomala; conditions: serial dilution 67-0.5 µg/mL, overnight incubation, n.i. = no inhibition
Protocol: as §1

[14] = system: Candida albicans (DSM 1665); assay: Serial dilution MIC assay, Candida albicans; conditions: serial dilution 67-0.5 µg/mL, overnight incubation, n.i. = no inhibition
Protocol: as §1

[15] = system: tested microorganisms (bacteria and fungi); assay: Serial dilution MIC assays, whole panel of tested strains; conditions: all bacteria and fungi of Tables 4 and 5, result in words
Protocol: as §1

[16] = system: A431 (ACC91) human squamous cell carcinomas; assay: MTT cytotoxicity test, A431; conditions: five days incubation
Text: as §2

[17] = system: A549 (ACC107) human lung carcinoma; assay: MTT cytotoxicity test, A549; conditions: five days incubation
Text: as §2

[18] = system: SKOV-3 (ovarian carcinoma); assay: MTT cytotoxicity test, SKOV-3; conditions: five days incubation
Text: as §2

[19] = system: MCF-7 (A115) human breast adenocarcinoma; assay: MTT cytotoxicity test, MCF-7; conditions: MCF-7 human breast adenocarcinoma, five days incubation
Text: as §2

[20] = system: PC-3 (ACC465) human prostate adenocarcinoma; assay: MTT cytotoxicity test, PC-3; conditions: PC-3 human prostate adenocarcinoma, five days incubation
Text: as §2

[21] = DSM346, serial dilution 67-0.5 µg/mL, read-out: MIC
[22] = DSM10, serial dilution 67-0.5 µg/mL, read-out: MIC
[23] = DSM2656, serial dilution 67-0.5 µg/mL, read-out: MIC
[24] = DSM10134, serial dilution 67-0.5 µg/mL, read-out: MIC
[25] = DSM30191, serial dilution 67-0.5 µg/mL, read-out: MIC

Row | Compound | MIC [2] | IC50 ([3]; KB 3-1, 120 h, read-out: IC50) [µM] | MIC [4] | MIC [5, 21] [µg/mL] | IC50 [6] | MIC [7] | MIC [8, 22] [µg/mL] | MIC [9] | MIC ([11]; serial dilution 67-0.5 µg/mL) | MIC [13] | MIC [14] | IC50 [3] | IC50 ([6]; 120 h, read-out: IC50) [µM] | other results
1 | CC(C)C1=C2[C@H]3CC=C4[C@@H]5O[C@@H]6[C@@]7(O)[C@@H](OC[C@]6(O)O5)O[C@@H]([C@@H]47)[C@]3(C)CC[C@@]2(C)CC1=O [Compound 2, dentifragilin B] | n.i. | 51 | n.i. | 66.6 (≈ 150 µM) | no activity | n.i. | 66.6 (≈ 150 µM) | n.i. | n.i. | n.i. | n.i. | – | – | MIC ([1]; serial dilution 67-0.5 µg/mL): n.i.; MIC ([10]; serial dilution 67-0.5 µg/mL): n.i.; MIC ([12]; serial dilution 67-0.5 µg/mL): n.i.
2 | CC(C)C1=C2[C@H]3CC[C@@H]4CO[C@@]5(O)[C@H](O)CO[C@H]6O[C@@H]([C@@H]4[C@]65O)[C@]3(C)CC[C@@]2(C)CC1=O [Compound 3, dentifragilin C] | n.i. | – | n.i. | – | not cytotoxic | n.i. | – | n.i. | n.i. | n.i. | n.i. | not cytotoxic | – | MIC ([1]; serial dilution 67-0.5 µg/mL): n.i.; MIC ([5]; serial dilution 67-0.5 µg/mL): n.i.; MIC ([8]; serial dilution 67-0.5 µg/mL): n.i.; MIC ([10]; serial dilution 67-0.5 µg/mL): n.i.; MIC ([12]; serial dilution 67-0.5 µg/mL): n.i.; activity against all tested microorganisms [15]: devoid of any activity
3 | CC(C)C1=C2[C@H]3CC[C@H](CO)[C@@H]4[C@H](O[C@@H]5OC[C@@H](O)[C@H](O)[C@@]54O)[C@]3(C)CC[C@@]2(C)CC1=O [Compound 4, dentifragilin D] | n.i. | 42.2 | n.i. | 33.3 (≈ 73.9 µM) | weak activities | n.i. | 16.7 (≈ 37.1 µM) | n.i. | n.i. | n.i. | n.i. | weak activities | 48.9 | MIC ([1]; serial dilution 67-0.5 µg/mL): n.i.; MIC [10, 23]: 66.6 µg/mL (≈ 148 µM); MIC [12, 24]: 66.6 µg/mL (≈ 148 µM)
4 | CC(C)C1=C2[C@H]3CC=C(C=O)[C@@H]4[C@H](O[C@@H]5OC[C@@H](O)[C@H](O)[C@@]54O)[C@]3(C)CC[C@@]2(C)CC1 [Compound 5, dentifragilin E] | n.i. | 15.7 | n.i. | 16.7 (≈ 38.6 µM) | weak activities | n.i. | 16.7 (≈ 38.6 µM) | n.i. | n.i. | n.i. | n.i. | weak activities | 34.7 | MIC [1, 25]: 66.6 µg/mL (≈ 154 µM); MIC [10, 23]: 33.3 µg/mL (≈ 77 µM); MIC [12, 24]: 66.6 µg/mL (≈ 154 µM)
5 | CC(C)C1=C2[C@H]3CC[C@H](CO)[C@@H]4[C@H](O[C@@H]5OC[C@@H](O)[C@H](O)[C@@]54O)[C@]3(C)CC[C@@]2(C)CC1 [Compound 6, dentifragilin F] | – | – | – | – | not cytotoxic | – | – | – | – | – | – | not cytotoxic | – | –
6 | CO[C@H]1O[C@@]2(O)[C@H](O)CO[C@H]3O[C@H]4[C@@H]([C@@H]1CC[C@@H]1C5=C(C(C)C)CC[C@]5(C)CC[C@]14C)[C@]32O [Compound 7, dentifragilin G] | – | 10.3 | – | – | weak activities | – | – | – | – | – | – | weak activities | 14.9 | –
7 | CO[C@H]1O[C@H]2[C@H](O)CO[C@H]3O[C@H]4[C@@H](C1=CC[C@@H]1C5=C(C(C)C)CC[C@]5(C)CC[C@]14C)[C@]32O [Compound 8, dentifragilin H] | – | 2 | – | – | – | – | – | – | – | – | – | – | 10 | –
8 | O=C(O)c1cn(C2CC2)c2cc(N3CCNCC3)c(F)cc2c1=O [ciprofloxacin, reference compound] | – | – | – | – | – | – | – | – | – | – | – | – | – | MIC ([4]; read-out: MIC): 0.3 µg/mL (≈ 0.905 µM)
9 | C/C(=C\c1csc(C)n1)[C@@H]1C[C@@H]2O[C@]2(C)CCC[C@H](C)[C@H](O)[C@@H](C)C(=O)C(C)(C)[C@@H](O)CC(=O)O1 [epothilon B, reference compound] | – | – | – | – | – | – | – | – | – | – | – | – | – | IC50 [16]: 0.067 nM; IC50 [17]: 0.095 nM; IC50 [18]: 0.051 nM; IC50 ([3]; read-out: IC50): 3.3e-05 µM; IC50 [19]: 0.03 nM; IC50 [20]: 0.00015 µM; IC50 ([6]; read-out: IC50): 4.7e-05 µM
10 | NC[C@H]1O[C@H](O[C@H]2[C@H](O)[C@@H](O[C@H]3O[C@H](CO)[C@@H](O)[C@H](N)[C@H]3O)[C@H](N)C[C@@H]2N)[C@H](O)[C@@H](O)[C@@H]1O [kanamycin, reference compound] | 1.7 ^b µg/mL | – | – | – | – | – | – | – | – | – | – | – | – | –
11 | C[C@@H]1[C@H](O)[C@@H](C)/C=C/C=C/CC/C=C/C=C/C=C/C=C/C(O[C@H]2O[C@H](C)[C@@H](O)[C@H](N)[C@@H]2O)CC2O[C@](O)(CC(O)C(O)CCC(O)CC(O)CC(O)CC(=O)O[C@H]1C)CC(O)C2C(=O)O (stereo partly shown) [nystatin, reference compound] | – | – | – | – | – | – | – | 4.2 µg/mL (≈ 4.54 µM) | – | 8.3 µg/mL (≈ 8.96 µM) | 8.3 µg/mL (≈ 8.96 µM) | – | – | MIC ([10]; serial dilution 67-0.5 µg/mL): 4.2 µg/mL (≈ 4.54 µM); MIC ([12]; serial dilution 67-0.5 µg/mL): 2.1 µg/mL (≈ 2.27 µM)
12 | CN(C)[C@@H]1C(O)=C(C(N)=O)C(=O)[C@@]2(O)C(O)=C3C(=O)c4c(O)cccc4[C@@](C)(O)[C@H]3[C@H](O)[C@@H]12 [oxytetracycline, reference compound] | – | – | – | 0.2 (≈ 0.434 µM) | – | – | 4.2 (≈ 9.12 µM) | – | – | – | – | – | – | MIC [1, 25]: 0.8 µg/mL (≈ 1.74 µM); MIC ([11]; DSM1116, serial dilution 67-0.5 µg/mL, read-out: MIC): 3.3 µg/mL (≈ 7.17 µM)
13 | gentamycin [reference compound] | – | – | – | – | – | 0.4 ^d µg/mL | – | – | – | – | – | – | – | –
